Patent US8815944B2, “Pharmaceutical composition with gelling properties containing a tyrosine derivative” (Ethypharm, priority 2008, dated 2014)
Where a name gives a salt, the structure may show the parent alone.

Assays:
Assay type in all cases: physicochemical
[1] = Differential scanning calorimetry (DSC) of organogels in safflower oil; conditions: organogelator 5% (w/w) in safflower oil; for H (enthalpy of the gel-solution transition): area of endothermic peak; for TGS (gel-solution transition temperature): maximum of endothermic peak
Description: (§1) Organogelators at a concentration of 5% (w/w) were solubilized in safflower oil at high temperature (>80° C.) and gels were obtained by cooling the mixture.
The gels were characterized by differential scanning calorimetry (DSC) to obtain gel-solution transition temperatures (TGS) and enthalpy values of the transition (ΔH). Briefly, thermograms of gels were collected on a 2910 TA Instruments DSC system (New Castle, Del.). The instrument was calibrated with indium. Gels were weighed into aluminum pans that were subsequently sealed. Temperature was scanned between 5 and 90° C. at 10° C./min. The reported gel-sol transition temperatures (TGS) and enthalpies (ΔH) corresponded to the maximum and the area of the endothermic peaks respectively.

[2] = Rheological analysis of the gels (gel hardness, complex modulus G*); conditions: organogelator 5% (w/w) in safflower oil; 25±0.1° C., 0.1 to 10 Hz
Description: as §1
Rheological analysis of the gels was performed to determine the gel hardness, by measuring the complex modulus G*. The rheological properties of the organogels were measured by an AR2000 (Advanced Rheometer 2000, TA Instruments, New Castle, Del.), with parallel plate geometry (diameter of 40 mm). Organogels were heated until reaching TGS and they were placed between the parallel plates. The final thickness of the material coat between the plates was 650 to 750 μm. The film was cooled at 4° C. to form the gel. In the linear regime of the gel, the complex modulus G* have been measured as a function of the angular frequency (0.1 to 10 Hz) at 25±0.1° C. G*=(G′^2+G″^2)^0.5 with G′ the storage modulus and G″ the loss modulus.

[3] = Stability after sterilization by γ-radiation, by 1H-NMR; conditions: γ-radiation at 25 kGy on dry ice, 60Co source
Description: All formulation components were sterilized individually. B-TyrOCH3 and rivastigmine hydrogen tartrate (Riv) were sterilized on dry ice by γ-radiation at 25 kGy using a ^60Co source (Nordion Inc., Laval, QC, Canada). Stability of the organogelator and drug after sterilization was confirmed by ^1H-NMR. The safflower oil and NMP were filtered on 0.2-μm polytetrafluoroethylene filters. Safflower oil, B-TyrOCH3 (5% w/w) and Rivastigmine were mixed at 85° C. until solubilisation of the organogelator. N-methylpyrrolidone (NMP) (3% w/w) was added at high temperature, mixed and gel formulation syringes (20 G needle) were prepared, under aseptic conditions and put on ice during 15 minutes and at room temperature before injection. A control formulation was prepared without the organogelator in the same condition (oil formulation).

Row | SMILES | H (enthalpy of the gel-solution transition) [1] [kcal/mol] | TGS (gel-solution transition temperature) [1] [°C] | G* (complex modulus, gel hardness) [2] [kPa] | Stability after sterilization [3]
1 | CCCCCCCCCCCCCCCCCCCCCC(=O)N[C@@H](Cc1ccccc1)C(=O)OC [B-Phe-OCH3] | 14.6 | 53 | 6 | 
2 | CCCCCCCCCCCCCCCCCCCCCC(=O)N[C@@H](Cc1ccc(O)cc1)C(=O)OC [B-Tyr-OCH3, N-Behenoyl L-tyrosine methyl ester] | 17 | 74 | 37.6 | 
3 | CCCCCCCCCCCCCCCCCC(=O)NC(C)C(=O)OC (stereo not shown) [S-Ala-OCH3] | 13.1 | 60 | 5 | 
4 | CCCCCCCCCCCCCCCCCC(=O)N[C@@H](Cc1ccccc1)C(=O)OC [S-Phe-OCH3, N-stearoyl L-phenylalanine methyl ester] | 9.08 | 43 | 6.1 | 
5 | CCCCCCCCCCCCCCCCCC(=O)N[C@@H](Cc1c[nH]c2ccccc12)C(=O)OC [S-Trp-OCH3, N-stearoyl L-tryptophan methyl ester] | 5.5 | 56 | <0.1 | 
6 | CCCCCCCCCCCCCCCCCC(=O)N[C@@H](Cc1c[nH]c2ccccc12)C(=O)O [S-Trp-OH, N-stearoyl L-tryptophan] | 3.82 | 122 | <0.1 | 
7 | CCCCCCCCCCCCCCCCCC(=O)N[C@@H](Cc1ccc(O)cc1)C(=O)OC [S-Tyr-OCH3, N-Stearoyl L-tyrosine methyl ester] | 12 | 65 | 15.2 | 
8 | CCCCCCCCCCCCCCCCCC(=O)N[C@@H](Cc1ccc(O)cc1)C(=O)O [S-Tyr-OH, N-stearoyl L-tyrosine] | 4.3 | 127 | 5 | 
9 | CCN(C)C(=O)Oc1cccc([C@H](C)N(C)C)c1 [rivastigmine hydrogen tartrate] |  |  |  | confirmed
